From US4285949A, “Vincamine derivatives, their preparation and therapeutical use” (Omnichem Societe Anonyme, priority 1978, dated 1981)

Key:
[1] = Acute toxicity, LD50 by intravenous route in mice (Lichtfield and Wilcoxon); conditions: mouse, in vivo
Description: The compounds of the invention as well as vincamine were administered by intravenous route to Charles River stock mice. The 50% lethal doses (LD50) where determined graphically according to the method of Lichtfield and Wilcoxon (J. Pharmacol. Exp. Therap. […], 96, 99).

[2] = test system: mice; experiment: Hypobaric anoxia test on mice; assay type: in vivo, mice (Charles River stock); conditions: intragastric, 15 minutes before; for Survival time: 190 mm Hg (5.25% oxygen), control 39 (±2); for Survival time Variation %: 190 mm Hg, increase vs control animals
Description: Charles River stock mice of the same sex, weighing about 20±2 g are shared into three lots of 10 animals each. The lots 1 and 2 comprise treated animals, i.e. those having received either a substance to be tested or vincamine, together with solvent, at 1 ml/100 g of body weight. The third lot comprises control animals i.e. those having only received solvent at 1 ml/100 g of body weight.
The compounds examined are administered by intragastric route 15 minutes before the experiment.
The animals are placed in an atmosphere impoverished in oxygen by creating a partial vacuum (190 mm Hg, corresponding to 5.25% oxygen), in about 30 seconds.
The survival time of the mice is measured with a chronometer. Said time is increased by the agents capable of enhancing oxygenation of tissues and more particularly brain oxygenation. The percentages of survival time increase with respect to the values obtained for the control animals are calculated.
The doses were selected to obtain a 50-70% increase of the survival time of the animals under the experimental conditions.

Row | SMILES | LD50 ([1]; iv) | Survival time ([2]; 30 mg/kg) | Survival time Variation % ([2]; 30 mg/kg) | Survival time ([2]; 20 mg/kg) | Survival time Variation % ([2]; 20 mg/kg) | LD50 ([1]; mice, intravenous) | Survival time ([2]; 200 mg/kg) | Survival time Variation % ([2]; 200 mg/kg)
1 | CC[C@]12C=CCN3CCc4c(n(c5ccc(Cl)cc45)[C@](O)(C(=O)OC)C1)[C@@H]32 [OC-231 E, 10-Chloro-16-epiΔ14-vincamine] | 47 mg/kg | 62 (±6) | +55% | – | – | – | – | –
2 | CC[C@]12C=CCN3CCc4c(n(c5ccc(Cl)cc45)[C@@](O)(C(=O)OC)C1)[C@@H]32 [OC-231 N, 10-Chloro-Δ14-vincamine] | 47 mg/kg | 60 (±1) | +53% | – | – | – | – | –
3 | CC[C@]12C=CCN3CCc4c(n(c5ccc(Cl)cc45)C(C(=O)OC)=C1)[C@@H]32 [OC-233, 10-Chloro-apo-Δ14-vincamine] | 52 mg/kg | – | – | 57 (±4) | +46% | – | – | –
4 | CC[C@]12CCCN3CCc4c(n(c5ccccc45)[C@@](O)(C(=O)OC)C1)[C@@H]32 [Vincamine] | – | – | – | – | – | 47 mg/kg | 58 (±4) | +49%
